The test system of test [1] is ETA receptor over the ETB subtype. The settings on record: cited from earlier work.
Test [2] has as its system endothelin-induced arachidonic acid release in vascular smooth muscle cells (ETA). The settings on record: cited from earlier work.
Test [3] relates to endothelin-stimulated constriction in the rabbit femoral renal (ETA), and pulmonary arteries (ETB). The settings on record: cited from earlier work.
For a further test, the system named is ETB. The settings on record: isolated, endothelium-intact porcine pulmonary arteries; cited from earlier work.
Test [4] has as its system ET-1-induced vasoconstriction. The settings on record: isolated porcine coronary arteries; cited from earlier work.
For a further test, the system named is ET receptor. The settings on record: cited from earlier work.
The subject of test [5] is ET-1-induced vasoconstriction. The settings on record: isolated rabbit aorta; cited from earlier work.
The next test relates to pressor response to ET-1. The settings on record: IV bolus 1 mg/kg; cited from earlier work.
In another test the test system is ET-1-induced arrythmia. The settings on record: rats; cited from earlier work.
In test [6] the test system is vasoconstriction of the basilar artery. The settings on record: canine subarachnoid hemorrhage, intracisternal 0.1 mg; cited from earlier work.
For test [7], the target named is endothelin receptor (Rat Heart). The test can be described thus: [125I]-ET-1 receptor binding, Rat Heart. As to the method: (§1) The compounds of Formula I are valuable antagonists of endothelin. […] Compounds of Formula I were tested for their ability to inhibit [^125 I]-ET-1([^125 I]-Endothelin-1) binding in a receptor assay according to the following procedures Doherty, A. M., et al, J. Cardiovascul. Pharmacol. 17(Suppl 7):S59-61 (1991) and Doherty, A. M., et al, Bio. Org.

The target of test [8] is endothelin receptor (Human Placenta). The test can be described thus: [125I]-ET-1 receptor binding, Human Placenta. As for the experimental part:
as §1

Test [9] has as its system endothelin-stimulated arachidonic acid release in cultured vascular smooth muscle cells. As to the kind of experiment: AAR assay for antagonist activity. The format is cell-based, rabbit. The settings on record: ET-1 0.3 nM. As to the method:
AAR Assay for Antagonist Activity
Antagonist activity is measured by the ability of added compounds to reduce endothelin-stimulated arachidonic acid release in cultured vascular smooth muscle cells as arachidonic acid release (AAR). [^3 H] Arachidonic Acid Loading Media (LM) is DME/F12+0.5% FCS×0.25 mCi/mL [^3 H] arachidonic acid (Amersham). Confluent monolayers of cultured rabbit renal artery vascular smooth muscle cells were incubated in 0.5 mL of the LM over 18 hours, at 37° C., in 5% CO2. The LM was aspirated and the cells were washed once with the assay buffer (Hank's BSS+10 mM HEPES+fatty acid-free BSA (1 mg/mL), and incubated for 5 minutes with 1 mL of the prewarmed assay buffer. This solution was aspirated, followed by an additional 1 mL of prewarmed assay buffer, and further incubated for another 5 minutes. A final 5-minute incubation was carried out in a similar manner. […] This solution was then collected, […] of scintillation cocktail was added, and the amount of [^3 H] arachidonic acid was determined in a liquid scintillation counter.

Test [10] concerns the target T1, ETA (rabbit renal artery vascular smooth muscle cells) (Oryctolagus cuniculus, UniProt A5A8K3).
T1 construct: The cells used were rabbit renal artery vascular smooth muscle cells; endogenous in cells; host or cells: rabbit renal artery vascular smooth muscle cells
T1 sequence (A5A8K3 21-427): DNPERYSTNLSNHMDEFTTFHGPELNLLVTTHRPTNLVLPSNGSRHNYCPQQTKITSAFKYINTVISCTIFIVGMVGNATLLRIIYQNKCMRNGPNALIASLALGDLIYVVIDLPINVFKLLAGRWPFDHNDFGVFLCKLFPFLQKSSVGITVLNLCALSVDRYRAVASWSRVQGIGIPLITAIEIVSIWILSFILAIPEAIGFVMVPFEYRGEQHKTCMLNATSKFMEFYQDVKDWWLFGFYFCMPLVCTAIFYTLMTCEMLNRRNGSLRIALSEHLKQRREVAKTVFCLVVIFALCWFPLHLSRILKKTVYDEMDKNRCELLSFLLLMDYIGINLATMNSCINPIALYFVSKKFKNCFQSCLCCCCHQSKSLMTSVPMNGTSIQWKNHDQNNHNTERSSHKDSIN
The test can be described thus: Endothelin receptor binding assay-A (ERBA-A), intact cell binding of [125I]-ET-1. The settings on record: rabbit renal artery vascular smooth muscle cells, [125I]-ET-1 25 pM. As to the method:
(§2) The compounds of Formula I are valuable antagonists of endothelin. […] Compounds of Formula I were tested for their ability to inhibit [^125 I]-ET-1([^125 I]-Endothelin-1) binding in a receptor assay according to the following procedures Doherty, A. M., et al, J. Cardiovascul. Pharmacol. 17(Suppl 7):S59-61 (1991) and Doherty, A. M., et al, Bio. Org. Med. Chem. Lett. in press (1992):
ENDOTHELIN RECEPTOR BINDING ASSAY-A (ERBA-A) INTACT CELL BINDING OF [^125 I]-ET-1
The cells used were rabbit renal artery vascular smooth muscle cells grown in a 48-well dish (1 cm^2) (confluent cells).
The growth media was Dulbeccos Modified Eagles/Ham's F12 which contained 10% fetal bovine serum and antibiotics (penicillin/streptomycin/fungizone).
The assay buffer was a medium 199 containing Hanks salts and 25 mM Hepes buffer (Gibco 380-2350AJ), supplemented with penicillin/streptomycin/fungizone (0.5%) and bovine serum albumin (1 mg/mL).
Amersham radioiodinated endothelin-1 [^125 I]-ET-1 was used at final concentration of 20,000 cpm/0.25 mL (25 pM).
Second, remove the assay buffers, place the dish on ice, and add 150 μL of cold assay buffer described above to each well. Third, add 50 μL each of cold [^125 I]-ET-1 and competing ligand to the solution (at the same time if possible). Next, place dish in a 37° C. water bath for about 2 hours and gently agitate the dish every 15 minutes. Discard the radioactive incubation mixture in the sink and wash wells three times with […] of cold phosphate buffered saline. Last, add […] of 0.25 molar sodium hydroxide, agitate for 1 hour on a rotator, and then transfer the sodium hydroxide extract to gamma counting tubes and count the radioactivity.

The target of test [11] is T2, ETB (rat cerebellar membranes) (Rattus norvegicus, UniProt P21451).
T2 construct: thaw one aliquot of frozen rat cerebellar membranes; from tissue; host or cells: rat cerebellar membranes
T2 sequence (P21451 27-442): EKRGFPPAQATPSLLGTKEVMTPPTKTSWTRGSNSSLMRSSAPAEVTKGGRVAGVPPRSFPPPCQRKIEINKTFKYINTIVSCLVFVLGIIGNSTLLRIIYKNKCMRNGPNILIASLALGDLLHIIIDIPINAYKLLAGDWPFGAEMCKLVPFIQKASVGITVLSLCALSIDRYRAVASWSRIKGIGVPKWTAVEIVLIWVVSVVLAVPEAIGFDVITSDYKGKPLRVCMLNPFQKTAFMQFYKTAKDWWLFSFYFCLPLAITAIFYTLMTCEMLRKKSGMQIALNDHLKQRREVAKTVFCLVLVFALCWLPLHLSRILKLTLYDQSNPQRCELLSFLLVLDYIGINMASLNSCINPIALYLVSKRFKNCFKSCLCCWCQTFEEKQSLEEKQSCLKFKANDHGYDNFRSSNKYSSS
As to the kind of experiment: Endothelin receptor binding assay-B (ERBA-B), [125I]-ET-1 binding in rat cerebellar membranes. The settings on record: rat cerebellar membranes, [125I]-ET-1 25 pM. As to the method:
as §2
ENDOTHELIN RECEPTOR BINDING ASSAY-B (ERBA-B) [^125 I]-ET-1 BINDING IN RAT CEREBELLAR MEMBRANES
The tissue is made up of 20 mM tris(hydroxy-methyl)aminomethane hydrochloride (Trizma) buffer, 2 mM ethylenediaminetetra acetate, 100 μM phenylmethylsulfonyl fluoride.
First, thaw one aliquot of frozen rat cerebellar membranes (2 mg protein in 0.5 mL). Next, add 0.5 mL membrane aliquot to 4.5 mL cold tissue buffer, polytron at 7,500 revolutions per minute for 10 seconds. Finally, dilute tissue suspension 1/100 (0.1 mL suspension+9.9 mL tissue buffer), polytron again, and place ice.
Medium 199 with Hank's salts plus 25 mM Hepes+1 mg/mL bovine serum albumin.
Amersham [^125 I]-ET-1 (aliquots of 2×10^6 cpm per […] aliquot of [^125 I]-ET-1 with 5.2 mL dilution buffer, place on ice until use (final concentration will be 20,000 cpm per tube, or 25 pM).
Add 50 μL each of cold [^125 ]-ET-1 and competing ligand to tubes on ice. Mix in 150 μL of tissue to each tube, vortex briefly, then tap to force all liquids to bottom (total assay volume=250 μL). Then place the tubes in a 37° C. water bath for 2 hours.
Add 2.5 mL cold wash buffer (50 mM Trizma buffer) to each tube, filter, and then wash tube with additional 2.5 mL wash buffer and add to filter. Finally, wash filters with an additional 2.5 mL of cold wash buffer.
Count filters for radioactivity in gamma counter.

Here are results for ten compounds from patent US5922681A, “Endothelin antagonists” (Warner-Lambert Company, priority 1992, dated 1999).

Non-standard residues stand in square brackets, D forms with d. Residues, ends and D or L forms follow the SMILES beside them. No end group written: not given here.

On to “Ac-(β-phenyl)D-Phe-L-Leu-L-Asp-L-lle-L-lle-L-Trp trifluoroacetate [PD 142893]”, for which the “Binding selectivity for the ETA receptor over the ETB subtype” value in test [1] is recorded as “tenfold”. Besides, in test [2], the “Antagonism of endothelin-induced arachidonic acid release” value was “functional antagonist”. Moreover, in test [3], the “Antagonism of endothelin-stimulated constriction” value is given as “antagonizes”.
“ET[1,3,11,15-Ala]: linear ET analog, reported selective ETB agonist (ASASSLMDKEAVYFAHLDIIW; Endothelin-1; UniProt P05305 53-73, looked up, variant C1A C3A C11A C15A)”: the Vasorelaxation entry in the test on ETB is “caused vasorelaxation”.
In the case of `CC(C)C[C@@H]1NC(=O)[C@@H](C(C)C)NC(=O)[C@@H]2CCCN2C(=O)[C@@H](CC(=O)O)NC(=O)[C@@H](Cc2c[nH]c3ccccc23)NC1=O` [BQ-123] (cyclo(L[dW][dD]P[dV])), the “Antagonism of ET-1-induced vasoconstriction” value in test [4] was “antagonize”.
With “ET[1-20]: ET-1 lacking the C-terminal amino acid (Trp-21) (CSCSSLMDKECVYFCHLDII; ends and bridges not checked; cysteine pairing not given here; UniProt P05305 53-72, looked up, fragment)”, the “Functional / vasoconstrictor activity, fold less” value in the test with ET receptor is “approximately 1000 fold”.
Turning to FR 139317, the “pA2, inhibition of ET-1-induced vasoconstriction” value in [5] is on record as 7.2. In the test with pressor response to ET-1, the “Initial depressor response to ET-1” value is on record as “no effect” and the “Pressor response to ET-1” value is recorded as “completely inhibited”. Also, in the test with ET-1-induced arrythmia, the ET-1-induced arrythmia entry is given as “suppressed”. Besides, the “Vasoconstriction of the basilar artery after 7 days” value in test [6] is “significantly inhibited”.
Turning to ET[6-21, 1,3,11,15-Ala], the Vasorelaxation result in the test on ETB is “caused vasorelaxation”.
On to “N-acetyl-ET[10-21]: truncated ET analog, reported selective ETB agonist (Ac-ECVYFCHLDIIW; cysteine pairing not given here; UniProt P05305 62-73, looked up, fragment)”, for which the Vasorelaxation result in the test on ETB was “caused vasorelaxation”.
As a reminder, the IC50 is the concentration that inhibits the measured activity by half. Read a low IC50 as greater potency in that assay. For `C[C@@](Cc1c[nH]c2ccccc12)(NC(=O)OC1C2CC3CC(C2)CC1C3)C(=O)N[C@H](CC(=O)O)Cc1ccccc1` (relative stereo) [Compound 4, [S-(R*,R*)]-β-[[3-(1H-indol-3-yl)-2-methyl-1-oxo-2-[[(tricyclo[3.3.1.1^3,7]dec-2-yloxy)carbonyl]-amino]propyl]amino]benzenebutanoic acid], the IC50 in test [7] worked out at 47.3 µM; in test [8], 58.3 µM. Besides, the “AAR IC50 (μM) (Antag) % inhib at 10 μM” value in test [9] came out at 62.4%.
On to `C[C@H]1CCCC[C@@H]1OC(=O)N[C@](C)(Cc1c[nH]c2ccccc12)C(=O)N[C@H](CC(=O)O)Cc1ccccc1` (relative stereo) [Compound 1, (1S-trans)-N-[α-methyl-N-[[(2-methyl-cyclohexyl)-oxy]carbonyl]-D-tryptophyl]-L-3-(phenylmethyl)-β-alanine], for which the half-inhibitory concentration (IC50) in [7] came to 9.25 µM; in test [8], 0.72 µM; in test [10], 46 µM; in test [11], 1.5 µM.
As to ET[8-21,11,15-Ala], the Vasorelaxation result with ETB was “caused vasorelaxation”.
